Data reported in patent publication US11214835B1, “Methods and compositions for diagnosis and management of neurodegerative diseases” (UNIVERSITY OF SOUTH FLORIDA, priority 2017, dated 2022).

System: GAS5 lncRNA
Test: γ-AApeptide OBOC combinatorial library screen with fluorescein tagged GAS5 oligonucleotide, hits validated in vitro
Assay type: binding
Settings: fluorescein tagged GAS5 oligonucleotide probe, tRNA as control
From the text: The interaction between UPF1 and GAS5 was disrupted using a γ-AApeptide based one-bead-one-compound (OBOC) combinatorial library (Wu H, Li Y, Bai G, Niu Y, Qiao Q, Tipton J D, Cao C, Cai J. gamma-AApeptide-based small-molecule ligands that inhibit Abeta aggregation. Chemical communications. 2014; 50(40):5206-8. doi: 10.1039/c3cc46685j. PubMed PMID: 24158240). The γ-AApeptide is a peptidomimetic with side chains for chemical diversity and are resistant to proteolytic cleavage. To screen the compound library, a probe that contained a fluorescein tagged oligonucleotide was synthesized. The probe spanned 30 nucleotides on either side of the UAA sequences on GAS5 (FIG. 13) The fluorescein was attached to the 5′end (beginning of oligonucleotide probe sequence). The nucleotide sequence within the GAS5 IncRNA that the oligonucleotide probe binds to can be about 100% identical to […] (SEQ ID NO: 4), which is nucleotides 541 to 651 of SEQ ID NO: 1. The underlined regions indicate the UAA that is the target regions. As such, the oligonucleotide probe was designed to flank both sides of these target regions.
The length of oligonucleotide was required to maintain stem loop structure to specifically bind to GAS5. Further, we modeled the oligonucleotide (RNAfold software) to evaluate its folding and verified absence of any unwanted secondary structures. The backbone was modified by 2′-MOE (2′-O-methoxyethylribose), which protects it from degradation and a fluoroscein tag was attached to the 5′end to aid in screening. The oligonucleotide probe was used to screen 160,000 molecules in the combinatorial library using tRNA as control (as tRNA has similar stem loop secondary structures). […] The compound having a structure according to Formula 3 was determined to have a chemical formula of C68H92N10O9S, a mass of about 1224.6769, and a molecular weight of 1225.6050. The compound having a structure according to Formula 14 was determined to have a chemical formula of C63H85N9O13S, a mass of about 1207.5988, and a molecular weight of 1208.4830. […]

| SMILES | ability to bind GAS5 (identified and validated from library screen) |
| --- | --- |
| CC(C)C[C@H]1CN(C(=O)CC2CC2)CC(=O)N[C@@H](CCCCN)CN(C(=O)CCc2ccccc2)CC(=O)N[C@@H](Cc2ccccc2)CN(CC(N)=O)C(=O)CCSCc2ccc(cc2)C(=O)N[C@@H](Cc2ccccc2)CN(C(=O)CC2CC2)CC(=O)N1 [Formula G5-1397] | able to bind GAS5 |
| NCCCC[C@H]1CN(C(=O)CCc2ccccc2)CC(=O)N[C@@H](CCC(=O)O)CN(CC(N)=O)C(=O)CCSCc2ccc(cc2)C(=O)N[C@@H](CCC(=O)O)CN(C(=O)CCC(=O)O)CC(=O)N[C@@H](CCCCN)CN(C(=O)CCCN)CC(=O)N1 [NPG567] | can bind GAS5 |
